Measured values as given in publication PMC10539329, “NLRP6 potentiates PI3K/AKT signalling by promoting autophagic degradation of p85α to drive tumorigenesis” (Nature Communications, 2023).

Key:
p85α = test: IHC of p85α in tumour tissues from peptide-treated mice; type: in vivo, nude mice with human tumour cells; conditions: PepC
Procedure: In brief, the tissue sections were deparaffinized in xylene and 50–100% ethanol sequentially and then rehydrated in deionized water. The sections were immersed in Antigen Retrieval Solution in a pressure cooker and kept at 120 °C for 2.5 min. Endogenous peroxidase activity was blocked with peroxidase blocking reagent (3% hydrogen peroxide in water) for 15 min. The sections were incubated with primary antibodies in incubation buffer at 4 °C overnight. The sections were rinsed with wash buffer and incubated with secondary antibodies at room temperature for 1 h. Finally, the sections were immersed in DAB Chromogen Solution for suitable staining and counterstained with Haematoxylin QS for 3 min. The protein score was calculated by multiplying the percentage of positive cells (<10% = 0, 10–25% = 1, 25–50% = 2, 50–75% = 3, >75% = 4) by the intensity (negative = 0, weak staining = 1, moderate staining = 2, or strong staining = 3). The stained sections were evaluated by two independent pathologists who were blinded to the clinical characteristics.
To determine the antitumour effect of the peptide in vitro, the peptide was incubated with cells for 24 h when the cells were grown to approximately 80% confluence. Cell viability was measured at the indicated time points. The cell lysates were collected for immunoprecipitation as described above. To determine the antitumour effect of the peptide in vivo, the peptide was stereotactically injected using identical coordinates of tumour implantation in 3 μl of PBS. Briefly, 3 weeks after intracranial tumour cell implantation, mice with similar tumour sizes and similar weights were selected and randomly arranged into five groups (n = 6): PBS, PepC (0.25 mg/kg TAT-PepC per injection), Pep9 low dose (Pep9 L, 0.05 mg/kg TAT-Pep9 per injection), Pep9 medium dose (Pep9 M, 0.1 mg/kg TAT-Pep9 per injection), and Pep9 high dose (Pep9 H, 0.25 mg/kg TAT-Pep9 per injection). Each mouse received intratumoural injection every 10 days (at Day 21, Day 31, Day 41, and Day 51), and tumour growth was monitored at Day 21, Day 41, and Day 56. The experiment was terminated at Day 80, and all the mice (if they were alive) were sacrificed as previously described.

recombinant NLRP6 = biological target: T1, recombinant NLRP6 (Homo sapiens, UniProt P59044); test: Biolayer interferometry (BLI) binding of peptides to recombinant NLRP6; conditions: 30 °C, PBS with 0.01% Tween-20
T1 construct: DNA encoding full-length NLRP6 was codon optimized; His (N); MBP (N); made in house; host or cells: E. coli (DE3)
T1 sequence (P59044 1-892): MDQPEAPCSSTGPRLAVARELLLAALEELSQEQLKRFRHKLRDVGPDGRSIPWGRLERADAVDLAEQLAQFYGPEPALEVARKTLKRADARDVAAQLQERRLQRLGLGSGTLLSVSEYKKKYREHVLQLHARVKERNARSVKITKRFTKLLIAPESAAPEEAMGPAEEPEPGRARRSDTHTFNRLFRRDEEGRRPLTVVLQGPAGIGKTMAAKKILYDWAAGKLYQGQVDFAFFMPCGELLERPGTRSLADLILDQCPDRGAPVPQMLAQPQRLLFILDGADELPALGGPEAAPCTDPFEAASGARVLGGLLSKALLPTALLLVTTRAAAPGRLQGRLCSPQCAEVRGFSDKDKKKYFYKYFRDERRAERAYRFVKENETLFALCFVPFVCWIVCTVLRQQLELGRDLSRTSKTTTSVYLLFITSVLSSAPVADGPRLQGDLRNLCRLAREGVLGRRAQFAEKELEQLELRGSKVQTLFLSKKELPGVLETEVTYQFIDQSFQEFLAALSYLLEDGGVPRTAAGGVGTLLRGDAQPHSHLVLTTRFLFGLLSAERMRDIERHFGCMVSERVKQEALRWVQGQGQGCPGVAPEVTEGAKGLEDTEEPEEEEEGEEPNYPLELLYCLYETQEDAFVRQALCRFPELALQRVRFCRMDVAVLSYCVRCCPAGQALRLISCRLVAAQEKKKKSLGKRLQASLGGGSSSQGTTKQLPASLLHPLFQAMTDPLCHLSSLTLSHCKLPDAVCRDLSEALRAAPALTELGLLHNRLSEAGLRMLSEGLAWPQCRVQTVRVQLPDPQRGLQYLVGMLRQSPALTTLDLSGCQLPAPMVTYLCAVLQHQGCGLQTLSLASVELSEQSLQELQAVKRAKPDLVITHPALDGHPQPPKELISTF
Procedure: DNA encoding full-length NLRP6 was codon optimized and chemically synthesized by Genewiz (Soochow, China). The DNA sequence was subcloned into NdeI-XhoI sites of a pDB-His-MBP vector (kindly given by Pro. Chenggui Han, China Agricultural University, Beijing, China). Recombinant NLRP6 protein was expressed and purified following previous reports, with slight modifications. Briefly, the protein was expressed in E. coli (DE3) at 16 °C with 0.5 mM IPTG induction overnight. Then, the protein was purified by Ni affinity and gel filtration chromatography. The p85α WT and p85α mutant sequences were chemically synthesized and subcloned into BamHI-XhoI sites of a pGEX-6P-1 plasmid by GenScript (Nanjing, China). The E. coli (DE3) transformed with the plasmids were grown in LB medium at 37 °C. The culture medium was supplemented with 0.5 mM IPTG followed by incubation at 16 °C for 16–18 h. […] The protein extinction coefficient was calculated by ProtParam, and the protein concentration was determined by the ultraviolet spectrophotometry method.
Eleven α-helical peptides were synthesized (Supplementary Data 7). […] The interaction between the peptides and NLRP6 was determined by BLI using an Octet Red 96 instrument (FortéBio, CA, USA). […] Responses (nanometre shift) were calculated using data that were double reference subtracted using reference wells and nonspecific binding of the biosensor to the analyte. […]

## SAEGYQYRALYD [Pep1, peptide found on the p85α SH3 domain; selected as the control named PepC]
p85α; replicate 1
  score (Supplementary Figure 8k): 2
p85α; replicate 2
  score (Supplementary Figure 8k): 1
p85α; replicate 3
  score (Supplementary Figure 8k): 1
p85α; replicate 4
  score (Supplementary Figure 8k): 3
p85α; replicate 5
  score (Supplementary Figure 8k): 1
Recombinant NLRP6
  binding to NLRP6 (in words): did not interact with NLRP6
